{"source": "patent US20210128596A1", "about": "“COMPOSITIONS AND METHODS FOR TREATING SEPTIC CARDIOMYOPATHY” (UNIVERSITY OF PENNSYLVANIA, priority 2017, published 2021)", "key": {"C57BL/6 mice": {"tested_on": "C57BL/6 mice", "test": "Echocardiography after cecal ligation and puncture (CLP) or sham surgery", "format": "in vivo, mouse", "set-up": "LVID; d / EF / FS / LV Mass / LV Mass (Corrected) / LV Vol; d / IVS; d: unit not given here", "protocol": "Mice were either sham treated or subjected to cecal ligation puncture (CLP). SDG was administered either 2 hours prior to CLP or 6 hours following CLP. Echocardiograms from each group of mice was collected (FIG. 2A) and ejection fraction (EF, left) and fractional shortening (FS, right) was determined.\nAnimal care, cecal ligation and puncture procedure and echocardiography—Animal protocols were approved by the Temple University Institutional Animal Care and Use Committee and were carried out in accordance with the NIH guidelines for the care and use of laboratory animals. Wild type (WT) 8-12 week old C57BL/6 mice were purchased from Jackson labs. Cecal ligation and puncture (CLP) was performed as previously described. Mice were anesthetized with 3.5% inhaled isofluorane. Under aseptic conditions, a 1 to 2 cm midline laparotomy was performed and exposure of the cecum with adjoining intestine. The cecum was tightly ligated at its base below the ileo-cecal valve at a distance of lcm and was punctured twice with a 19-gauge needle. The length of the ligated cecum was defined as the distance from the distal end of cecum to ligation point, which affects the degree of disease severity. Fecal material was extruded from the punctured cecum, and it was returned to the peritoneal cavity. The peritoneum and the skin were closed with three sutures. The mice were resuscitated by injecting subcutaneously lml of pre-warmed 0.9% saline solution to induce the hyperdynamic phase of sepsis and for post-operative analgesia the mice received subcutaneously buprenorphine (0.05 mg·kg body weight). Mice received a single intraperitoneal injection of LGM2605 (100 mg/kg i.p.) that was administrated either 2 h prior to CLP or 6 h post CLP. At 12 h post CLP, two-dimensional echocardiography was performed on anesthetized mice (1.5% inhaled isoflurane) using a VisualSonics Vevo 2100 machine. Echocardiographic images were recorded in a digital format. A single observer blinded to the respective treatments of mice analyzed short-axis m-mode images by LV trace. The number of mice used for each experiment are mentioned in the figure legends."}, "[1]": {"tested_on": "IL-1α, IL-1β, IL-6, IL-10 and TNFα", "test": "Plasma levels of cytokines (Milliplex)", "format": "in vivo, mouse", "details": "plasma 12 hours post-surgery", "source_text": "Inflammatory cytokines measurement—Circulating levels of IL-1α, IL-1β, IL-6, IL-10 and TNFα were quantified simultaneously from frozen plasma samples using the Milliplex MAP Mouse Cytokine kit (MCYTOMAG-70K-05) following the kit specifications. Samples were read using the Luminex MAGPIX multiplexing unit."}, "protein kinase A (PKA)": {"tested_on": "protein kinase A (PKA)", "test": "Protein kinase A (PKA) activity in AC16 cells", "format": "cell-based, human", "source_text": "AC16 cells were either left untreated or treated with SDG, Liposaccharide (LPS), or both.\nCell culture—A human ventricular cardiomyocyte-derived cell line, designated AC-16, was used for some in vitro experiments. Cells were maintained in Dulbecco's modified Eagle's medium-nutrient mixture F-12 (DMEM-F-12; Invitrogen, Carlsbad, Calif.)."}, "β adrenergic receptors": {"tested_on": "β adrenergic receptors", "test": "Radioligand binding assay for cardiac β-AR density", "format": "in vivo, mouse", "details": "hearts 12 h post-CLP, LGM2605 6 h post-CLP", "protocol": "Radioligand binding assay—Plasma membranes from excised mouse hearts were prepared, and saturation radio-ligand binding was performed as described previously, using ^125I-CYP (iodocyanopindolol; PerkinElmer, Waltham, Mass.) for β-AR density measurement. Data were analyzed by nonlinear regression analysis using GraphPad Prism (GraphPad Software, La Jolla, Calif.)."}, "AC16 cells": {"tested_on": "AC16 cells", "test": "Mitochondrial superoxide (MitoSOX Red) in LPS-treated AC16 cells", "format": "cell-based, human", "details": "LPS 12 h with SDG/LGM2605 (50 μM)", "protocol": "AC16 cells were either left untreated or treated for 12 hours with Liposaccharide (LPS) in the absence or presence of SDG, and subsequently stained with mitosox red.\nMeasurement of mitochondrial superoxide, mitochondrial membrane potential and mitochondrial number—AC16 cells were cultured in sterile cell culture dishware at approximately 80% confluence. After overnight incubation, cells were treated with LPS (1 μg/ml), LPS and LGM2605 (50 μM). LPS and LGM2605 were diluted in serum free media and the control group was incubated as well with serum free media. At 12 hours after the treatment the AC16 cells were loaded with mitochondrial superoxide indicator MitoSOX Red (5 μM, M36008, Molecular Probes) and incubated for 30 minutes in the dark. Excess MitoSOX Red was removed following three washes with PBS solution. MitoSOX Red fluorescence was recorded at 510 (excitation) and 580 nm (emission)."}, "[2]": {"details": "CLP + LGM2605 (6 hr), 100 mg/kg i.p. 6 h post CLP, echo 12 h post CLP"}, "[3]": {"details": "CLP + LGM2605 (−2 hr), 100 mg/kg i.p. 2 h prior to CLP, echo 12 h post CLP"}, "[4]": {"details": "Sham + LGM2605 (6 hr), 100 mg/kg i.p., echo 12 h post-surgery"}}, "note": "“Also recorded” adds a separate entry of the source."}
{"smiles": "COc1cc(C[C@@H](CO[C@@H]2O[C@H](CO)[C@@H](O)[C@H](O)[C@H]2O)[C@H](CO[C@@H]2O[C@H](CO)[C@@H](O)[C@H](O)[C@H]2O)Cc2ccc(O)c(OC)c2)ccc1O", "note": "[LGM2605, secoisolariciresinol diglucoside]", "values": [{"measurement": "EF", "setting": "C57BL/6 mice; [2]", "result": 72.7}, {"measurement": "FS", "setting": "C57BL/6 mice; [2]", "result": 41.3}, {"measurement": "IVS; d", "setting": "C57BL/6 mice; [2]", "result": 1.4}, {"measurement": "IVS; s", "setting": "C57BL/6 mice; [2]", "result": 1.8}, {"measurement": "LV Mass", "setting": "C57BL/6 mice; [2]", "result": 129.2}, {"measurement": "LV Mass (Corrected)", "setting": "C57BL/6 mice; [2]", "result": 103.3}, {"measurement": "LV Vol; d", "setting": "C57BL/6 mice; [2]", "result": 30.2}, {"measurement": "LV Vol; s", "setting": "C57BL/6 mice; [2]", "result": 8.4}, {"measurement": "LVID; d", "setting": "C57BL/6 mice; [2]", "result": 2.8}, {"measurement": "LVID; s", "setting": "C57BL/6 mice; [2]", "result": 1.6}, {"measurement": "LVPW; d", "setting": "C57BL/6 mice; [2]", "result": 1.1}, {"measurement": "LVPW; s", "setting": "C57BL/6 mice; [2]", "result": 1.6}, {"measurement": "EF", "setting": "C57BL/6 mice; [3]", "result": 71.7}, {"measurement": "FS", "setting": "C57BL/6 mice; [3]", "result": 39.3}, {"measurement": "IVS; d", "setting": "C57BL/6 mice; [3]", "result": 1.3}, {"measurement": "IVS; s", "setting": "C57BL/6 mice; [3]", "result": 1.6}, {"measurement": "LV Mass", "setting": "C57BL/6 mice; [3]", "result": 97.2}, {"measurement": "LV Mass (Corrected)", "setting": "C57BL/6 mice; [3]", "result": 77.8}, {"measurement": "LV Vol; d", "setting": "C57BL/6 mice; [3]", "result": 18.6}, {"measurement": "LV Vol; s", "setting": "C57BL/6 mice; [3]", "result": 5.3}, {"measurement": "LVID; d", "setting": "C57BL/6 mice; [3]", "result": 2.3}, {"measurement": "LVID; s", "setting": "C57BL/6 mice; [3]", "result": 1.4}, {"measurement": "LVPW; d", "setting": "C57BL/6 mice; [3]", "result": 1.1}, {"measurement": "LVPW; s", "setting": "C57BL/6 mice; [3]", "result": 1.5}, {"measurement": "CLP-mediated cardiac dysfunction", "setting": "C57BL/6 mice; LGM2605 100 mg/kg i.p. 2 h prior to CLP or 6 h post-CLP", "result": "prevented CLP-mediated cardiac dysfunction"}, {"measurement": "cardiac fractional shortening", "setting": "C57BL/6 mice; SDG 100 mg/kg body weight, i.p., 6 hours post-CLP surgery", "result": "increased cardiac fractional shortening"}, {"measurement": "ejection fraction (EF) and fractional shortening (FS)", "setting": "C57BL/6 mice; SDG 2 hours prior to CLP or 6 hours following CLP", "result": "restores EF and to pre-CLP levels"}, {"measurement": "EF", "setting": "C57BL/6 mice; [4]", "result": 66.7}, {"measurement": "FS", "setting": "C57BL/6 mice; [4]", "result": 36.4}, {"measurement": "IVS; d", "setting": "C57BL/6 mice; [4]", "result": 1.1}, {"measurement": "IVS; s", "setting": "C57BL/6 mice; [4]", "result": 1.5}, {"measurement": "LV Mass", "setting": "C57BL/6 mice; [4]", "result": 146.7}, {"measurement": "LV Mass (Corrected)", "setting": "C57BL/6 mice; [4]", "result": 117.4}, {"measurement": "LV Vol; d", "setting": "C57BL/6 mice; [4]", "result": 55.4}, {"measurement": "LV Vol; s", "setting": "C57BL/6 mice; [4]", "result": 17.9}, {"measurement": "LVID; d", "setting": "C57BL/6 mice; [4]", "result": 3.6}, {"measurement": "LVID; s", "setting": "C57BL/6 mice; [4]", "result": 2.3}, {"measurement": "LVPW; d", "setting": "C57BL/6 mice; [4]", "result": 1.0}, {"measurement": "LVPW; s", "setting": "C57BL/6 mice; [4]", "result": 1.4}, {"measurement": "systolic function", "setting": "C57BL/6 mice; septic mice treated with LGM2605", "result": "normal systolic function"}, {"measurement": "circulating levels of IL-1α, IL-1β, IL-6, TNFα and IL-10", "setting": "[1]", "result": "did not reduce circulating levels"}, {"measurement": "protein kinase A (PKA) activity", "setting": "protein kinase A (PKA); SDG alone", "result": "increased protein kinase A (PKA) activity"}, {"measurement": "protein kinase A (PKA) activity", "setting": "protein kinase A (PKA); SDG in the presence of LPS", "result": "this stimulation was abolished in the presence of LPS"}, {"measurement": "protein kinase A (PKA) activity", "setting": "protein kinase A (PKA); SDG with isoproterenol", "result": "the increase was amplified by isoproterenol"}, {"measurement": "cardiac β-AR density", "setting": "β adrenergic receptors", "result": "not reversed by treatment with LGM2605"}, {"measurement": "mitochondrial superoxide levels (Mitosox Red staining)", "setting": "AC16 cells", "result": "suppressed by LGM2605"}, {"measurement": "mitochondrial superoxide levels (Mitosox Red staining)", "setting": "AC16 cells; listed as SDG", "result": "statistically significant decrease in superoxide levels in LPS-treated cells; also recorded: lower mitosox red staining"}]}
